For ten molecules, T/C results are on record in PubChem BioAssay AID220 (DTP/NCI, 2004).

The structures appear in SMILES notation. Several values for one entry are separate records, joined by “and”; a condition that tells them apart may be missing. Identical values can stand only once. Results filed as inconclusive are left out.

The test system of this test is CD8F1 mice, subcutaneous mammary adenocarcinoma, T/C%. The test is described as follows: NCI In Vivo Anticancer Drug Screen. Data for tumor model Mammary Adenocarcinoma CD8F1 (subcutaneous) in CD8F1. To be noted: higher = larger tumour. On the procedure:
The antitumor activity of compounds was measured in mice bearing transplantable tumors. Survival or tumor size were measured and the results are expressed as the measurement made in the treated group (T) divided by the measurement made in the vehicle treated control group (C). The tumor model used in this assay is Mammary Adenocarcinoma CD8F1 (subcutaneous) in CD8F1

Where [1] appears, read: endpoint: median tumor weight (est.), dose: 25.0 mg/kg/injection, schedule: Q07DX005 (ip), vehicle: saline.
Setting [2] is: endpoint: median tumor weight (est.), dose: 50.0 mg/kg/injection, schedule: Q07DX005 (ip), vehicle: saline.
Where [3] appears, read: endpoint: median tumor weight (est.), dose: 100.0 mg/kg/injection, schedule: Q07DX005 (ip), vehicle: saline.
[4] abbreviates: endpoint: median tumor weight (est.), dose: 200.0 mg/kg/injection, schedule: Q07DX005 (ip), vehicle: saline.
The mark [5] stands for this setting: endpoint: median tumor weight (est.), dose: 12.5 mg/kg/injection, schedule: Q07DX005 (ip), vehicle: saline with Tween-80.
[6] abbreviates: endpoint: median tumor weight (est.), dose: 50.0 mg/kg/injection, schedule: Q07DX005 (ip), vehicle: saline with Tween-80.
Setting [7] is: endpoint: median tumor weight (est.), dose: 400.0 mg/kg/injection, schedule: Q07DX005 (ip), vehicle: saline with Tween-80.
Where [8] appears, read: endpoint: median tumor weight (est.), dose: 400.0 mg/kg/injection, schedule: Q07DX005 (ip), vehicle: saline.

As for `CCCCNC(C)[C@]1(O)Cc2c(O)c3c(c(O)c2[C@@H](OC2CC(N)C(O)C(C)O2)C1)C(=O)c1c(OC)cccc1C3=O` (stereo partly specified), the T/C is 89 % of control (endpoint: median tumor weight (est.), dose: 2.67 mg/kg/injection, schedule: Q07DX005 (ip), vehicle: water); 74 % of control (endpoint: median tumor weight (est.), dose: 4.0 mg/kg/injection, schedule: Q07DX005 (ip), vehicle: water); 47 % of control (endpoint: median tumor weight (est.), dose: 6.0 mg/kg/injection, schedule: Q07DX005 (ip), vehicle: water).

Turning to `CC1(C)OC(=O)N(CO)C1=O`, the T/C runs as follows: (endpoint: median tumor weight (est.), dose: 12.5 mg/kg/injection, schedule: Q07DX005 (ip), vehicle: saline) 52 % of control; under setting [1], 73 % of control; under setting [2], 9 % of control; under setting [3], 110 % of control; under setting [4], 104 % of control.

In the case of `CC1=C[S+](c2ccccc2)c2cccc3cc4ccccc4c1c23` (stereo unspecified), the T/C by setting is: (endpoint: median tumor weight change, dose: 0.62 mg/kg/injection, schedule: Q01DX001 (ip), vehicle: saline with Tween-80) 103 % of control; (endpoint: median tumor weight change, dose: 5.0 mg/kg/injection, schedule: Q01DX001 (ip), vehicle: saline with Tween-80) 98 % of control; (endpoint: median tumor weight change, dose: 10.0 mg/kg/injection, schedule: Q01DX001 (ip), vehicle: saline with Tween-80) 40 % of control and 59 % of control.

With `CCCC(=O)Oc1ccc(/C=N/NC(N)=S)nc1`, the T/C under setting [5] is 279 % of control and 100 % of control; the T/C under setting [6] was 83 % of control and 101 % of control; the T/C under setting [7] is 121 % of control.

In the case of `O=C1N(Cl)C(=O)C(c2ccc(Cl)cc2)(c2ccc(Cl)cc2)N1Cl`, the T/C by setting is: under setting [5], 98 % of control; (endpoint: median tumor weight (est.), dose: 25.0 mg/kg/injection, schedule: Q07DX005 (ip), vehicle: saline with Tween-80) 119 % of control; under setting [6], 91 % of control; (endpoint: median tumor weight (est.), dose: 100.0 mg/kg/injection, schedule: Q07DX005 (ip), vehicle: saline with Tween-80) 104 % of control; (endpoint: median tumor weight (est.), dose: 200.0 mg/kg/injection, schedule: Q07DX005 (ip), vehicle: saline with Tween-80) 113 % of control; under setting [7], 43 % of control. The T/C reads like this: (endpoint: median tumor weight change, dose: 12.5 mg/kg/injection, schedule: Q01DX001 (ip), vehicle: saline with Tween-80) 98 % of control; (endpoint: median tumor weight change, dose: 25.0 mg/kg/injection, schedule: Q01DX001 (ip), vehicle: saline with Tween-80) 68 % of control; (endpoint: median tumor weight change, dose: 50.0 mg/kg/injection, schedule: Q01DX001 (ip), vehicle: saline with Tween-80) 71 % of control; (endpoint: median tumor weight change, dose: 100.0 mg/kg/injection, schedule: Q01DX001 (ip), vehicle: saline with Tween-80) 45 % of control and 48 % of control; (endpoint: median tumor weight change, dose: 200.0 mg/kg/injection, schedule: Q01DX001 (ip), vehicle: saline with Tween-80) 44 % of control and 53 % of control; (endpoint: median tumor weight change, dose: 400.0 mg/kg/injection, schedule: Q01DX001 (ip), vehicle: saline with Tween-80) 24 % of control.

Turning to `O=C1OC(C(O)CO)C(O)=C1O` (stereo unspecified), the T/C is 70 % of control under setting [3]; 28 % of control under setting [4]; 110 % of control under setting [8]; 61 % of control (endpoint: median tumor weight (est.), dose: 800.0 mg/kg/injection, schedule: Q07DX005 (ip), vehicle: saline).

For `C[CH2][Ge]([CH2]C)[CH2]C.C[CH2][Ge]([CH2]C)[CH2]C.C[CH2][Ge]([CH2]C)[O][Ge]([CH2]C)[CH2]C`, the T/C (endpoint: median tumor weight change, dose: 125.0 mg/kg/injection, schedule: Q01DX001 (ip), vehicle: saline with Tween-80) is 81 % of control and the T/C (endpoint: median tumor weight change, dose: 500.0 mg/kg/injection, schedule: Q01DX001 (ip), vehicle: saline with Tween-80) is 114 % of control.

On to `COC1/C=C/C=C(/C)Cc2cc(O)c(Cl)c(c2)N(C)C(=O)CC(OC(=O)C(C)C)C2(C)OC2C(C)C2CC1(O)NC(=O)O2` (stereo unspecified), for which the T/C by setting is: (endpoint: median tumor weight change, dose: 0.62 mg/kg/injection, schedule: Q01DX001 (ip), vehicle: saline + alcohol) 49 % of control; (endpoint: median tumor weight change, dose: 1.25 mg/kg/injection, schedule: Q01DX001 (ip), vehicle: saline + alcohol) 34 % of control and 54 % of control; (endpoint: median tumor weight change, dose: 2.5 mg/kg/injection, schedule: Q01DX001 (ip), vehicle: saline + alcohol) 50 % of control and 70 % of control; (endpoint: median tumor weight change, dose: 5.0 mg/kg/injection, schedule: Q01DX001 (ip), vehicle: saline + alcohol) 54 % of control and 55 % of control; (endpoint: median tumor weight change, dose: 10.0 mg/kg/injection, schedule: Q01DX001 (ip), vehicle: saline + alcohol) 35 % of control and 60 % of control; (endpoint: median tumor weight change, dose: 20.0 mg/kg/injection, schedule: Q01DX001 (ip), vehicle: saline + alcohol) 48 % of control.

For `O=C1c2cccc3cc([N+](=O)[O-])cc(c23)C(=O)N1CCN1CCCC1`, the T/C runs as follows: (endpoint: median tumor weight change, dose: 7.0 mg/kg/injection, schedule: Q01DX001 (ip), vehicle: saline with Tween-80) 117 % of control; (endpoint: median tumor weight change, dose: 14.06 mg/kg/injection, schedule: Q01DX001 (ip), vehicle: saline with Tween-80) 69 % of control; (endpoint: median tumor weight change, dose: 28.12 mg/kg/injection, schedule: Q01DX001 (ip), vehicle: saline with Tween-80) 118 % of control; (endpoint: median tumor weight change, dose: 31.25 mg/kg/injection, schedule: Q01DX001 (ip), vehicle: saline with Tween-80) 63 % of control; (endpoint: median tumor weight change, dose: 56.25 mg/kg/injection, schedule: Q01DX001 (ip), vehicle: saline with Tween-80) 81 % of control; (endpoint: median tumor weight change, dose: 62.5 mg/kg/injection, schedule: Q01DX001 (ip), vehicle: saline with Tween-80) 20 % of control. Moreover, where the note is “endpoint: median tumor weight change, dose: 112.5 mg/kg/injection, schedule: Q01DX001 (ip), vehicle: saline with Tween-80”, the T/C was 18 % of control.

With `NC(C/[N+]([O-])=N/O)C(=O)O` (stereo unspecified), the T/C reads like this: (endpoint: mean tumor weight, dose: 32.0 mg/kg/injection, schedule: Q07DX006 (ip), vehicle: saline) 47 % of control; (endpoint: mean tumor weight, dose: 64.0 mg/kg/injection, schedule: Q07DX006 (ip), vehicle: saline) 4 % of control; (endpoint: mean tumor weight, dose: 128.0 mg/kg/injection, schedule: Q07DX006 (ip), vehicle: saline) 32 % of control; (endpoint: mean tumor weight, dose: 256.0 mg/kg/injection, schedule: Q07DX006 (ip), vehicle: saline) 117 % of control; (endpoint: mean tumor weight, dose: 512.0 mg/kg/injection, schedule: Q07DX006 (ip), vehicle: saline) 7 % of control; (endpoint: mean tumor weight, dose: 1024.0 mg/kg/injection, schedule: Q07DX006 (ip), vehicle: saline) 8 % of control. Also, the T/C is 63 % of control under setting [1]; 68 % of control under setting [2]; 85 % of control (endpoint: median tumor weight (est.), dose: 64.0 mg/kg/injection, schedule: Q01DX005 (ip), vehicle: saline); 57 % of control under setting [3]; 92 % of control (endpoint: median tumor weight (est.), dose: 128.0 mg/kg/injection, schedule: Q01DX005 (ip), vehicle: saline); 56 % of control under setting [4]. In addition, the T/C runs as follows: (endpoint: median tumor weight (est.), dose: 256.0 mg/kg/injection, schedule: Q01DX005 (ip), vehicle: saline) 51 % of control; under setting [8], 49 % of control; (endpoint: median tumor weight (est.), dose: 512.0 mg/kg/injection, schedule: Q01DX005 (ip), vehicle: saline) 31 % of control; (endpoint: median tumor weight (est.), dose: 1024.0 mg/kg/injection, schedule: Q01DX005 (ip), vehicle: saline) 63 % of control.
